How the values were obtained:
Assay type in all cases: in vivo
[1] = tested on: crabgrass (Digitaria sanguinalis); assay: Test B postemergence
Outline: (§1)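 Visual injury scores, 0 = no effect to 100 = complete control, assigned against controls after 13 to 15 days in the greenhouse. Compounds formulated in non-phytotoxic solvent plus surfactant and applied to soil after planting (pre) or onto foliage of 1- to 4-leaf plants (post).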

[2] = tested on: cocklebur (Xanthium strumarium); assay: Test B postemergence
Outline: as §1

[3] = tested on: blackgrass (Alopecurus myosuroides); assay: Test B postemergence
Outline: as §1

[4] = tested on: lambsquarters (Chenopodium album); assay: Test C preemergence; conditions: for Plant response rating (0 to 100), Lambsquarters: Rate 500 g/ha, visual evaluation after 12 to 14 days
Outline: (§2)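 Plants held in greenhouse for 12–14 days post-application are scored by eye against controls on a 0–100 control scale. Application timing: preemergence on sown seed, or postemergence on 2–18 cm plants.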

[5] = tested on: common ragweed (Ambrosia elatior); assay: Test C preemergence; conditions: for Plant response rating (0 to 100), Ragweed, Common: Rate 500 g/ha, visual evaluation after 12 to 14 days
Outline: as §2

[6] = tested on: johnsongrass (Sorghum halepense); assay: Test C preemergence; conditions: for Plant response rating (0 to 100), Johnsongrass: Rate 500 g/ha, visual evaluation after 12 to 14 days
Outline: as §2

[7] = tested on: crabgrass (Digitaria sanguinalis); assay: Test C preemergence; conditions: for Plant response rating (0 to 100), Crabgrass: Rate 500 g/ha, visual evaluation after 12 to 14 days
Outline: as §2

[8] = tested on: yellow nutsedge (Cyperus esculentus); assay: Test C preemergence; conditions: for Plant response rating (0 to 100), Nutsedge: Rate 500 g/ha, visual evaluation after 12 to 14 days
Outline: as §2

[9] = tested on: cocklebur (Xanthium strumarium); assay: Test C preemergence; conditions: for Plant response rating (0 to 100), Cocklebur: Rate 500 g/ha, visual evaluation after 12 to 14 days
Outline: as §2

[10] = tested on: soybean (Glycine max); assay: Test C preemergence; conditions: for Plant response rating (0 to 100), Soybean: Rate 500 g/ha, visual evaluation after 12 to 14 days
Outline: as §2

[11] = tested on: morningglory (Ipomoea hederacea); assay: Test C preemergence; conditions: for Plant response rating (0 to 100), Morningglory: Rate 500 g/ha, visual evaluation after 12 to 14 days
Outline: as §2

[12] = tested on: Nightshade; assay: Test C preemergence
[13] = tested on: goosegrass (Eleusine indica); assay: Test C preemergence; conditions: for Plant response rating (0 to 100), Goosegrass: Rate 500 g/ha, visual evaluation after 12 to 14 days
Outline: as §2

[14] = tested on: bermudagrass (Cynodon dactylon); assay: Test C preemergence; conditions: for Plant response rating (0 to 100 where 0 is no effect and 100 is complete control), Bermudagrass: Rate 500 g/ha, visual evaluation after 12 to 14 days
Outline: as §2

[15] = tested on: corn (Zea mays); assay: Test C preemergence; conditions: for Plant response rating (0 to 100), Corn: Rate 500 g/ha, visual evaluation after 12 to 14 days
Outline: as §2

[16] = tested on: Surinam grass (Brachiaria decumbens); assay: Test C preemergence; conditions: for Plant response rating (0 to 100), Surinam grass: Rate 500 g/ha, visual evaluation after 12 to 14 days
Outline: as §2

[17] = tested on: giant foxtail (Setaria faberii); assay: Test C preemergence; conditions: for Plant response rating (0 to 100), Foxtail, Giant: Rate 500 g/ha, visual evaluation after 12 to 14 days
Outline: as §2

[18] = tested on: kochia (Kochia scoparia); assay: Test C preemergence; conditions: for Plant response rating (0 to 100), Kochia: Rate 500 g/ha, visual evaluation after 12 to 14 days
Outline: as §2

[19] = tested on: Sunflower; assay: Test C preemergence; conditions: Rate 250 g/ha, scale 0 to 100, 0 no effect, 100 complete control
[20] = Rate 125 g/ha, scale 0 to 100, 0 no effect, 100 complete control
[21] = Rate 500 g/ha, scale 0 (no effect) to 100 (complete control), 13 to 15 days
[22] = preemergence, Rate 62 g/ha, scale 0 to 100
[23] = preemergence, Rate 250 g/ha, scale 0 to 100, 0 no effect, 100 complete control
[24] = Rate 250 g/ha, scale 0 to 100, 0 no effect, 100 complete control

SMILES: CCC(C)c1ccn(C2CCN(c3ccc(Br)c(OC)c3)C2=O)n1 (centres unmarked) [Compound 142]
- Plant response rating, Crabgrass [1, 20]: 40
- Plant response rating, Crabgrass [1, 21]: 60
- Plant response rating, Cocklebur [2, 20]: 60
- Plant response rating, Cocklebur [2, 21]: 90
- Plant response rating, Blackgrass [3, 20]: 0
- Plant response rating, Blackgrass [3, 21]: 0
- Plant response rating, Lambsquarters [4, 20]: 100
- Plant response rating, Lambsquarters [4, 22]: 100
- Plant response rating (0 to 100), Lambsquarters ([4]; preemergence): 100
- Plant response rating, Lambsquarters [4, 23]: 100
- Plant response rating, Ragweed, Common [5, 20]: 100
- Plant response rating, Ragweed, Common [5, 22]: 0
- Plant response rating (0 to 100), Ragweed, Common ([5]; preemergence): 100
- Plant response rating, Ragweed, Common [5, 23]: 100
- Plant response rating, Johnsongrass [6, 20]: 0
- Plant response rating, Johnsongrass [6, 22]: 0
- Plant response rating (0 to 100), Johnsongrass ([6]; preemergence): 100
- Plant response rating, Johnsongrass [6, 23]: 100
- Plant response rating, Crabgrass [7, 20]: 100
- Plant response rating, Crabgrass [7, 22]: 100
- Plant response rating (0 to 100), Crabgrass ([7]; preemergence): 100
- Plant response rating, Crabgrass [7, 23]: 100
- Plant response rating, Nutsedge [8, 20]: 0
- Plant response rating, Nutsedge [8, 22]: 0
- Plant response rating (0 to 100), Nutsedge ([8]; preemergence): 20
- Plant response rating, Nutsedge [8, 23]: 0
- Plant response rating, Cocklebur [9, 20]: 30
- Plant response rating, Cocklebur [9, 22]: 0
- Plant response rating (0 to 100), Cocklebur ([9]; preemergence): 60
- Plant response rating, Cocklebur [9, 23]: 30
- Plant response rating, Soybean [10, 20]: 70
- Plant response rating, Soybean [10, 22]: 30
- Plant response rating (0 to 100), Soybean ([10]; preemergence): 100
- Plant response rating, Soybean [10, 23]: 100
- Plant response rating, Morningglory [11, 20]: 100
- Plant response rating, Morningglory [11, 22]: 90
- Plant response rating (0 to 100), Morningglory ([11]; preemergence): 100
- Plant response rating, Morningglory [11, 23]: 100
- Plant response rating, Nightshade ([12]; Rate 62 g/ha, scale 0 to 100): 90
- Plant response rating, Nightshade [12, 20]: 100
- Plant response rating, Nightshade [12, 24]: 100
- Plant response rating, Goosegrass [13, 20]: 100
- Plant response rating, Goosegrass [13, 22]: 100
- Plant response rating (0 to 100), Goosegrass ([13]; preemergence): 100
- Plant response rating, Goosegrass [13, 23]: 100
- Plant response rating, Bermudagrass [14, 20]: 100
- Plant response rating, Bermudagrass [14, 22]: 100
- Plant response rating (0 to 100 where 0 is no effect and 100 is complete control), Bermudagrass ([14]; preemergence): 100
- Plant response rating, Bermudagrass [14, 23]: 100
- Plant response rating, Corn [15, 20]: 0
- Plant response rating, Corn [15, 22]: 0
- Plant response rating (0 to 100), Corn ([15]; preemergence): 10
- Plant response rating, Corn [15, 23]: 0
- Plant response rating, Surinam grass [16, 20]: 0
- Plant response rating, Surinam grass [16, 22]: 0
- Plant response rating (0 to 100), Surinam grass ([16]; preemergence): 100
- Plant response rating, Surinam grass [16, 23]: 50
- Plant response rating, Foxtail, Giant [17, 20]: 100
- Plant response rating, Foxtail, Giant [17, 22]: 100
- Plant response rating (0 to 100), Foxtail, Giant ([17]; preemergence): 100
- Plant response rating, Foxtail, Giant [17, 23]: 100
- Plant response rating, Kochia [18, 20]: 100
- Plant response rating, Kochia [18, 22]: 100
- Plant response rating (0 to 100), Kochia ([18]; preemergence): 100
- Plant response rating, Kochia [18, 23]: 100
- Plant response rating, Sunflower [19]: 80

SMILES: CCC(CC)c1ccn(C2CCN(c3ccc(Br)c(OC)c3)C2=O)n1 (centres unmarked) [Compound 143]
- Plant response rating, Crabgrass [1, 20]: 0
- Plant response rating, Crabgrass [1, 21]: 80
- Plant response rating, Cocklebur [2, 20]: 0
- Plant response rating, Cocklebur [2, 21]: 100
- Plant response rating, Blackgrass [3, 20]: 0
- Plant response rating, Blackgrass [3, 21]: 0
- Plant response rating, Lambsquarters [4, 20]: 100
- Plant response rating, Lambsquarters [4, 22]: 100
- Plant response rating (0 to 100), Lambsquarters ([4]; preemergence): 100
- Plant response rating, Lambsquarters [4, 23]: 100
- Plant response rating, Ragweed, Common [5, 20]: 100
- Plant response rating, Ragweed, Common [5, 22]: 90
- Plant response rating (0 to 100), Ragweed, Common ([5]; preemergence): 100
- Plant response rating, Ragweed, Common [5, 23]: 100
- Plant response rating, Johnsongrass [6, 20]: 60
- Plant response rating, Johnsongrass [6, 22]: 0
- Plant response rating (0 to 100), Johnsongrass ([6]; preemergence): 90
- Plant response rating, Johnsongrass [6, 23]: 90
- Plant response rating, Crabgrass [7, 20]: 100
- Plant response rating, Crabgrass [7, 22]: 100
- Plant response rating (0 to 100), Crabgrass ([7]; preemergence): 100
- Plant response rating, Crabgrass [7, 23]: 100
- Plant response rating, Nutsedge [8, 20]: 0
- Plant response rating, Nutsedge [8, 22]: 0
- Plant response rating (0 to 100), Nutsedge ([8]; preemergence): 0
- Plant response rating, Nutsedge [8, 23]: 0
- Plant response rating, Cocklebur [9, 20]: 50
- Plant response rating (0 to 100), Cocklebur ([9]; preemergence): 55
- Plant response rating, Cocklebur [9, 23]: 50
- Plant response rating, Soybean [10, 20]: 80
- Plant response rating, Soybean [10, 22]: 70
- Plant response rating (0 to 100), Soybean ([10]; preemergence): 100
- Plant response rating, Soybean [10, 23]: 80
- Plant response rating, Morningglory [11, 20]: 100
- Plant response rating, Morningglory [11, 22]: 30
- Plant response rating (0 to 100), Morningglory ([11]; preemergence): 100
- Plant response rating, Morningglory [11, 23]: 100
- Plant response rating, Nightshade ([12]; Rate 62 g/ha, scale 0 to 100): 100
- Plant response rating, Nightshade [12, 20]: 100
- Plant response rating, Nightshade [12, 24]: 100
- Plant response rating, Goosegrass [13, 20]: 100
- Plant response rating, Goosegrass [13, 22]: 100
- Plant response rating (0 to 100), Goosegrass ([13]; preemergence): 100
- Plant response rating, Goosegrass [13, 23]: 100
- Plant response rating, Bermudagrass [14, 20]: 100
- Plant response rating, Bermudagrass [14, 22]: 100
- Plant response rating (0 to 100 where 0 is no effect and 100 is complete control), Bermudagrass ([14]; preemergence): 100
- Plant response rating, Bermudagrass [14, 23]: 100
- Plant response rating, Corn [15, 20]: 30
- Plant response rating, Corn [15, 22]: 30
- Plant response rating (0 to 100), Corn ([15]; preemergence): 30
- Plant response rating, Corn [15, 23]: 30
- Plant response rating, Surinam grass [16, 20]: 0
- Plant response rating, Surinam grass [16, 22]: 0
- Plant response rating (0 to 100), Surinam grass ([16]; preemergence): 70
- Plant response rating, Surinam grass [16, 23]: 70
- Plant response rating, Foxtail, Giant [17, 20]: 100
- Plant response rating, Foxtail, Giant [17, 22]: 100
- Plant response rating (0 to 100), Foxtail, Giant ([17]; preemergence): 100
- Plant response rating, Foxtail, Giant [17, 23]: 100
- Plant response rating, Kochia [18, 20]: 100
- Plant response rating, Kochia [18, 22]: 100
- Plant response rating (0 to 100), Kochia ([18]; preemergence): 100
- Plant response rating, Kochia [18, 23]: 100
- Plant response rating, Sunflower [19]: 80

Source: US7138361B2, “Herbicidal heterocycles” (E. I. du Pont de Nemours and Company, priority 2000, dated 2006)
